The text below walks through data of patent US10765754B2, “Compositions and methods related to inhibition of respiratory syncytial virus entry” (priority 2015, dated 2020).

This assay deals with T1, RSV-B/IZN45 (Human respiratory syncytial virus B, UniProt O36634).
T1 construct: N-trimer Mimics Synthesized; made in house; host or cells: chemical peptide synthesis
The assay can be described thus: biochemical. To be noted: synthesized peptide; RSV-B/IZN45; KD determined by SPR. Type of assay: binding. The text has this:
IZN45 N-trimer mimic comprises the IZ domain, a highly soluble, designed coiled-coil that helps solubilize the N-trimer, along with the C-terminal (bottom) 45 residues of the RSV N-trimer. IZN45 encompasses the full ordered portion of the N-trimer except for three N-terminal residues (removed to maintain a continuous heptad repeat with the IZ domain). The interactions between 35-residue RSV C-peptides, T108 and T118 (Lambert et al., 1996, Proc. Natl. Acad. Sci. USA 93:2186-2191), and IZN45 was examined by surface plasmon resonance (SPR). SPR is a gold standard assay to measure the kinetics and affinity of biological interactions. […] The Biotinylated L-form of RSV target IZN45 was captured onto one lane of a NeutrAvidin coated SPR chip. A mutant version of IZN45 containing four mutated residues along the N-trimer groove designed to disrupt binding (IZN45 Full Mut, negative control) was captured onto a separate lane of the NeutrAvidin chip. T118, corresponding to the C-terminal portion of the RSV F ectodomain, which is known to interact with the RSV N-trimer groove, was flowed over the various surfaces. […] The surfaces were regenerated with a detergent (0.1% SDS) after each injection of analyte. Various concentrations of T118 were measured in duplicate or triplicate injections. D-peptide interactions with IZN45 and IZN45-Full Mut surfaces were also measured using this method.
Peptides from the ‘winning’ phage clones from each library were synthesized as D-peptides. If solubility of the peptides was limited, N- or C-terminal charged residue(s) (e.g., lysine) were attached as necessary as previously described for HIV peptides in Eckert et al., 1999, Cell 99:103-15, incorporated by reference in its entirety. Binding affinity and kinetics of the D-peptide inhibitors to the IZN45 and IZN45 mutants was characterized by SPR (Biacore 3000), using methods as described in Welch et al., 2007, Proc. Natl. Acad. Sci. USA 104:16828-33, incorporated by reference in its entirety.
(SPR reads the build-up and loss of mass on a sensor chip optically.)

Positions of bridges follow the written chain, without caps; N, C: chain ends. Non-standard residues stand in square brackets, D forms with d. Residues, ends and D or L forms follow the SMILES beside them.

T1 sequence (O36634 163-207, added parts left off): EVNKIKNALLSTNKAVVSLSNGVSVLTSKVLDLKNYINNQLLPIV

For the compound `CSCC[C@@H](NC(=O)[C@@H](Cc1c[nH]c2ccccc12)NC(=O)[C@@H](Cc1c[nH]c2ccccc12)NC(=O)[C@@H](Cc1ccc(O)cc1)NC(=O)[C@@H](CCCCN)NC(=O)[C@@H](CC(C)C)NC(=O)[C@@H](CO)NC(C)=O)C(=O)N[C@H](CCC(=O)O)C(=O)N[C@H](CCC(=O)O)C(=O)N[C@H](CC(C)C)C(=O)N1CCC[C@@H]1C(=O)N[C@H](CC(C)C)C(=O)N1CCC[C@@H]1C(=O)N[C@H](CCCCN)C(=O)N[C@H](Cc1c[nH]c2ccccc12)C(=O)N[C@H](Cc1c[nH]c2ccccc12)C(=O)NCC(=O)NCC(N)=O` [Ac-X16-18-GG] (Ac-[dS][dL][dK][dY][dW][dW][dM][dE][dE][dL][dP][dL][dP][dK][dW][dW]GG-NH2), the Kd was 5.4 µM. The compound `CC[C@@H](C)[C@@H](NC(=O)[C@H](NC(=O)[C@@H](CCCCN)NC(=O)[C@H](N)CO)C(C)C)C(=O)N[C@H](CC(C)C)C(=O)N1CCC[C@@H]1C(=O)N[C@H](CCC(=O)O)C(=O)N1CCC[C@@H]1C(=O)N[C@H](Cc1ccccc1)C(=O)N[C@H](Cc1c[nH]c2ccccc12)C(=O)N[C@H](Cc1c[nH]c2ccccc12)C(=O)N1CCC[C@@H]1C(=O)NCC(=O)NCC(N)=O` [X12-47-GG] (H-[dS][dK][dV][dI][dL][dP][dE][dP][dF][dW][dW][dP]GG-NH2) came in with a Kd of 17 µM. As for `CC[C@@H](C)[C@@H](N)C(=O)N[C@H](CO)C(=O)N[C@H](CC(C)C)C(=O)N1CCC[C@@H]1C(=O)N[C@@H](C(=O)N1CCC[C@@H]1C(=O)N[C@@H](C(=O)N[C@H](Cc1c[nH]c2ccccc12)C(=O)N[C@H](Cc1c[nH]c2ccccc12)C(=O)N1CCC[C@@H]1C(=O)N[C@H](CO)C(=O)N[C@@H](C(=O)NCC(=O)N[C@H](CCCCN)C(N)=O)[C@H](C)O)[C@H](C)O)[C@H](C)O` [X12-45-GK] (H-[dI][dS][dL][dP][dT][dP][dT][dW][dW][dP][dS][dT]G[dK]-NH2), the affinity, expressed as Kd, was 6 µM.

Compound `CSCC[C@@H](NC(=O)[C@@H](Cc1c[nH]c2ccccc12)NC(=O)[C@@H](Cc1c[nH]c2ccccc12)NC(=O)[C@@H](Cc1ccc(O)cc1)NC(=O)[C@@H](CCCCN)NC(=O)[C@@H](CC(C)C)NC(=O)[C@@H](CO)NC(C)=O)C(=O)N[C@H](CCC(=O)O)C(=O)N[C@H](CCC(=O)O)C(=O)N[C@H](CC(C)C)C(=O)N1CCC[C@@H]1C(=O)N[C@H](CC(C)C)C(=O)N1CCC[C@@H]1C(=O)N[C@H](CCCCN)C(=O)N[C@H](Cc1c[nH]c2ccccc12)C(=O)N[C@H](Cc1c[nH]c2ccccc12)C(N)=O` [Ac-X16-18] (Ac-[dS][dL][dK][dY][dW][dW][dM][dE][dE][dL][dP][dL][dP][dK][dW][dW]-NH2) returned a Kd of 11 µM. Take `CSCC[C@@H](NC(=O)[C@@H](Cc1c[nH]c2ccccc12)NC(=O)[C@@H](Cc1c[nH]c2ccccc12)NC(=O)[C@@H](Cc1ccc(O)cc1)NC(=O)[C@@H](CCCCN)NC(=O)[C@@H](CC(C)C)NC(=O)[C@H](N)CO)C(=O)N[C@H](CCC(=O)O)C(=O)N[C@H](CCC(=O)O)C(=O)N[C@H](CC(C)C)C(=O)N1CCC[C@@H]1C(=O)N[C@H](CC(C)C)C(=O)N1CCC[C@@H]1C(=O)N[C@H](CCCCN)C(=O)N[C@H](Cc1c[nH]c2ccccc12)C(=O)N[C@H](Cc1c[nH]c2ccccc12)C(=O)NCC(=O)NCC(N)=O` [X16-18-GG] (H-[dS][dL][dK][dY][dW][dW][dM][dE][dE][dL][dP][dL][dP][dK][dW][dW]GG-NH2): the Kd is 24 µM. In turn, `CC[C@@H](C)[C@@H](NC(=O)[C@H](NC(=O)[C@@H](CCCCN)NC(=O)[C@H](N)CO)C(C)C)C(=O)N[C@H](CC(C)C)C(=O)N1CCC[C@@H]1C(=O)N[C@H](CCC(=O)O)C(=O)N1CCC[C@@H]1C(=O)N[C@H](Cc1ccccc1)C(=O)N[C@H](Cc1c[nH]c2ccccc12)C(=O)N[C@H](Cc1c[nH]c2ccccc12)C(=O)N1CCC[C@@H]1C(N)=O` [X12-47] (H-[dS][dK][dV][dI][dL][dP][dE][dP][dF][dW][dW][dP]-NH2) came in with a Kd of 10 µM. Consider `CC[C@@H](C)[C@H]1NC(=O)[C@@H](CCCCN)NC(=O)[C@H](NC(=O)[C@@H](C)NC(=O)CNC(C)=O)CSSC[C@H](C(=O)N[C@H](C)C(=O)N[C@H](C)C(N)=O)NC(=O)[C@@H](CC(=O)O)NC(=O)[C@@H](Cc2c[nH]cn2)NC(=O)[C@@H](Cc2c[nH]c3ccccc23)NC(=O)[C@@H](Cc2c[nH]cn2)NC(=O)[C@@H](Cc2ccccc2)NC(=O)[C@@H](CC(C)C)NC(=O)[C@@H](CC(=O)O)NC(=O)[C@@H](Cc2c[nH]cn2)NC1=O` [Ac-CX10C-119] (Ac-G[dA][dC][dK][dI][dH][dD][dL][dF][dH][dW][dH][dD][dC][dA][dA]-NH2; disulfide 3-14), for which the Kd came to 280 µM. With `CC[C@@H](C)[C@H]1NC(=O)[C@@H](CCCCN)NC(=O)[C@H](NC(=O)[C@@H](C)NC(=O)CN)CSSC[C@H](C(=O)N[C@H](C)C(=O)N[C@H](C)C(=O)NCC(=O)NCC(N)=O)NC(=O)[C@@H](CC(=O)O)NC(=O)[C@@H](Cc2c[nH]cn2)NC(=O)[C@@H](Cc2c[nH]c3ccccc23)NC(=O)[C@@H](Cc2c[nH]cn2)NC(=O)[C@@H](Cc2ccccc2)NC(=O)[C@@H](CC(C)C)NC(=O)[C@@H](CC(=O)O)NC(=O)[C@@H](Cc2c[nH]cn2)NC1=O` [CX10C-119-GG] (H-G[dA][dC][dK][dI][dH][dD][dL][dF][dH][dW][dH][dD][dC][dA][dA]GG-NH2; disulfide 3-14), the Kd was determined as 130 µM.

`CC[C@@H](C)[C@H]1NC(=O)[C@@H](CCCCN)NC(=O)[C@H](NC(=O)[C@@H](C)NC(=O)CNC(C)=O)CSSC[C@H](C(=O)N[C@H](C)C(=O)N[C@H](C)C(=O)NCC(=O)NCC(N)=O)NC(=O)[C@@H](CC(=O)O)NC(=O)[C@@H](Cc2c[nH]cn2)NC(=O)[C@@H](Cc2c[nH]c3ccccc23)NC(=O)[C@@H](Cc2c[nH]cn2)NC(=O)[C@@H](Cc2ccccc2)NC(=O)[C@@H](CC(C)C)NC(=O)[C@@H](CC(=O)O)NC(=O)[C@@H](Cc2c[nH]cn2)NC1=O` [Ac-CX10C-119-GG] (Ac-G[dA][dC][dK][dI][dH][dD][dL][dF][dH][dW][dH][dD][dC][dA][dA]GG-NH2; disulfide 3-14) displayed a Kd of 30 µM. As for `CC[C@@H](C)[C@@H](NC(=O)[C@@H](CC(=O)O)NC(=O)[C@@H](CC(=O)O)NC(=O)[C@@H](Cc1c[nH]c2ccccc12)NC(=O)[C@@H](Cc1c[nH]c2ccccc12)NC(=O)[C@H]1CCCN1C(=O)[C@@H](CCC(N)=O)NC(=O)[C@@H](CC(C)C)NC(=O)[C@H]1CCCN1C(=O)[C@@H](CC(C)C)NC(=O)[C@@H](Cc1c[nH]c2ccccc12)NC(=O)[C@H](N)Cc1c[nH]cn1)C(=O)N1CCC[C@@H]1C(=O)N[C@@H](C(=O)N[C@H](Cc1c[nH]c2ccccc12)C(=O)N[C@H](Cc1c[nH]cn1)C(=O)NCC(=O)N[C@H](CCCCN)C(N)=O)C(C)C` [X16-20-GK] (H-[dH][dW][dL][dP][dL][dQ][dP][dW][dW][dD][dD][dI][dP][dV][dW][dH]G[dK]-NH2), the Kd was 2 µM. As for `CSCC[C@@H](NC(=O)[C@@H](Cc1c[nH]c2ccccc12)NC(=O)[C@@H](Cc1c[nH]c2ccccc12)NC(=O)[C@@H](Cc1ccc(O)cc1)NC(=O)[C@@H](CCCCN)NC(=O)[C@@H](CC(C)C)NC(=O)[C@H](N)CO)C(=O)N[C@H](CCC(=O)O)C(=O)N[C@H](CCC(=O)O)C(=O)N[C@H](CC(C)C)C(=O)N1CCC[C@@H]1C(=O)N[C@H](CC(C)C)C(=O)N1CCC[C@@H]1C(=O)N[C@H](CCCCN)C(=O)N[C@H](Cc1c[nH]c2ccccc12)C(=O)N[C@H](Cc1c[nH]c2ccccc12)C(N)=O` [X16-18] (H-[dS][dL][dK][dY][dW][dW][dM][dE][dE][dL][dP][dL][dP][dK][dW][dW]-NH2), the equilibrium dissociation constant (Kd) was determined as 16 µM. Regarding `CC[C@@H](C)[C@@H](NC(C)=O)C(=O)N[C@H](CO)C(=O)N[C@H](CC(C)C)C(=O)N1CCC[C@@H]1C(=O)N[C@@H](C(=O)N1CCC[C@@H]1C(=O)N[C@@H](C(=O)N[C@H](Cc1c[nH]c2ccccc12)C(=O)N[C@H](Cc1c[nH]c2ccccc12)C(=O)N1CCC[C@@H]1C(=O)N[C@H](CO)C(=O)N[C@@H](C(=O)NCC(=O)NCC(N)=O)[C@H](C)O)[C@H](C)O)[C@H](C)O` [Ac-X12-45-GG] (Ac-[dI][dS][dL][dP][dT][dP][dT][dW][dW][dP][dS][dT]GG-NH2), the affinity, expressed as Kd, was 25 µM. Compound `CC[C@@H](C)[C@@H](NC(=O)[C@H](NC(=O)[C@@H](CCCCN)NC(=O)[C@@H](CO)NC(C)=O)C(C)C)C(=O)N[C@H](CC(C)C)C(=O)N1CCC[C@@H]1C(=O)N[C@H](CCC(=O)O)C(=O)N1CCC[C@@H]1C(=O)N[C@H](Cc1ccccc1)C(=O)N[C@H](Cc1c[nH]c2ccccc12)C(=O)N[C@H](Cc1c[nH]c2ccccc12)C(=O)N1CCC[C@@H]1C(=O)NCC(=O)NCC(N)=O` [Ac-X12-47-GG] (Ac-[dS][dK][dV][dI][dL][dP][dE][dP][dF][dW][dW][dP]GG-NH2) yielded a Kd of 15 µM.

As usually defined, the Kd is the equilibrium constant for the complex coming apart. Low readings indicate tighter binding, high ones weaker binding.
